# Test results taken from US7414107B2, “Pharmacologically active peptide conjugates having a reduced tendency towards enzymatic hydrolysis” (priority 1998, dated 2008).
# Where a SMILES comes first, the peptide text is derived from it. Where no end group is shown, it is not given here. [ ]: non-standard residue; d: D form. Dap = NC[C@H](N)C(=O)O
# Legend:
# vas deferens = conditions: read-out: EC50 value; half maximal inhibition of electrically-induced contraction, mouse vas deferens
# Experimental: (§1) In short: vasa deferentia were isolated from male mice weighing 20-30 g (Mellegaard breeding, DK) and suspended through two electrodes in 10 ml baths at resting tension of 1 g. […] The tissues were stimulated electrically (70 V, 1 ms duration; 0.1 Hz) and contractions were recorded isometrically on a chart recorder. After equilibration of the tissue for at least 20 min, drugs were added in the bath and the maximum effects were measured.
# (§2) Prior to addition of the plasma sample, a standard dose-response curve was generated in each preparation in order to express the inhibitory activity as concentration of each test substance. Thus, the calculated concentration is a reflection of inhibitory activity in the vas deferens bioassay preparation.
# (§3) Where initial=initial […] contraction force prior to addition of test substance; conc=concentration of test substance; EC50=concentration of test substance that […] produced half maximal inhibition of electrically-induced contraction; background=contraction force during maximal relaxation.
# leucine aminopeptidase = molecular target: T1, leucine aminopeptidase (Sus scrofa, UniProt P28839); test: Hydrolysis kinetics in leucine aminopeptidase solution; format: in vitro ADME, porcine; conditions: 50 mM phosphate buffer pH 7.4, 37° C., leucine aminopeptidase 25 U/ml; for half-life: pig
# T1 construct: purchased Sigma, UK type III-CP (catalogue number not given); host or cells: porcine kidney
# T1 sequence (P28839 1-519): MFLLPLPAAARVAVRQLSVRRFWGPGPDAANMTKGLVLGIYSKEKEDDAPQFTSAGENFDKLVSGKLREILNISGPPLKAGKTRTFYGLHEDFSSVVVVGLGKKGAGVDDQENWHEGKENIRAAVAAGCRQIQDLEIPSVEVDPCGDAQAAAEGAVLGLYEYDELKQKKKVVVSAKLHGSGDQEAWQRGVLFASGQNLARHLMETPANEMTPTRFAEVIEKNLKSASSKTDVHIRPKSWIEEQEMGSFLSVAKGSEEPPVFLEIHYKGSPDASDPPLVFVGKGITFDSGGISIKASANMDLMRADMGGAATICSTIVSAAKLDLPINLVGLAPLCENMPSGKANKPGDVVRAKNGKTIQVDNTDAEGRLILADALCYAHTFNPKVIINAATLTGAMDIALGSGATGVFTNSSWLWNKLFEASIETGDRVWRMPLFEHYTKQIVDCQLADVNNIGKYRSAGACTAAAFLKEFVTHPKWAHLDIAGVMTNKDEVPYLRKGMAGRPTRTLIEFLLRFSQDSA
# Summary of the method: (§4)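 Peptide conjugate or native peptide at ~0.1 mg/ml final (10^−5-10^−4M) incubated at 37° C in 50 mM phosphate pH 7.4 with leucine aminopeptidase (25 U/ml) or carboxypeptidase A (1 or 25 U/ml). Timed samples quenched with TFA/acetonitrile and quantified by RP-HPLC at 215 nm. t1/2 = ln2/kobs from first-order log plots.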
# carboxypeptidase A = molecular target: T2, carboxypeptidase A (Bos taurus, UniProt P00730); test: Hydrolysis kinetics in carboxypeptidase A solution; format: in vitro ADME, bovine; conditions: 50 mM phosphate buffer pH 7.4, 37° C., carboxypeptidase A 1 U/ml
# T2 construct: purchased Sigma, UK type I (catalogue number not given); host or cells: bovine pancreas
# T2 sequence (P00730 111-419): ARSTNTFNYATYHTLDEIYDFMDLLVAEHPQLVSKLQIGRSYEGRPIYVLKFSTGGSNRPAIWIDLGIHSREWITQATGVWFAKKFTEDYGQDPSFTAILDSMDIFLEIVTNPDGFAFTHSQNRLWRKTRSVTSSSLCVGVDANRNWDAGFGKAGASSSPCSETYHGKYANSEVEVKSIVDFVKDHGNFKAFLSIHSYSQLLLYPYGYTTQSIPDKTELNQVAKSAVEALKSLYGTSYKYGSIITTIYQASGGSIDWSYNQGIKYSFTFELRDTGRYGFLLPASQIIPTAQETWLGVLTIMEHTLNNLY
# Summary of the method: as §4
# [1] = Stability in mouse plasma at 37° C. (vas deferens bioassay readout)
# From the text: as §2, §3
# All enkephalin analogues were dissolved in Krebs buffer in a concentration of 1 mM. Sixty-six μl of each test substance solution (66 nmol enkephalin analog) was incubated with 600 μl plasma at 37° C. […] Functional activity of each test substance in plasma was expressed as the concentration of the test substance that elicited the same inhibition of electrically-induced contraction in the vas deferens bioassay. T1/2 was calculated by fitting the time-concentration data to the equation: conc(t)=conc(0)·e^(−ln2/T1/2)·t where conc(0)=concentration at t=0.
# guinea pig illeum = conditions: agonist, induced contraction, illeum not electrically stimulated
# Experimental: Following application of the compounds the induced contraction was measured.
# [2] = Bioavailability in mice: functional activity in serum after p.o. or i.v. dosing (vas deferens bioassay)
# Experimental: Blood samples were centrifuged immediately (3000 g, 4° C.) and serum was isolated and used for activity determination.
# as §1
# osteoblast = test: Osteoblast retraction assay; format: cell-based, mice
# Experimental: Retraction assays were performed with osteoblast prepared from calvaria of 1-day old mice according to published protocols (Miller et al., 1976, Science 192:1340-1343). In brief, osteoblasts were seeded in serum-free minimal essential medium-α (αMEM) at a density of 3000 cells per cm^2 into 96-well tissue culture plates coated with 50 μg/ml of type I collagen in phosphate-buffered saline containing 0.1% bovine serum albumin (PBS). One day after plating, PTH compounds were added to a final concentration of 10 nM and incubation was carried out for 1 h. Cells were then fixed and stained with toluidine blue, and the number of retracted cells was counted by visual inspection.
# PTH (1-34)-antibody = conditions: EIAS(h)-6101 from Peninsula Laboratories; cited from earlier work
compound,measurement,setting,value
"YGGFLEEEEEE [Leu-Enkephalin-(Glu)6-OH, H-Tyr-Gly-Gly-Phe-Leu-Glu6-OH]",EC50,vas deferens,140 nM
same,solubility,Solubility (remark),very low solubility
"CC(C)C[C@H](NC(=O)[C@H](Cc1ccccc1)NC(=O)CNC(=O)CNC(=O)[C@@H](N)Cc1ccc(O)cc1)C(=O)N[C@@H](CN)C(=O)N[C@@H](CN)C(=O)N[C@@H](CN)C(=O)N[C@@H](CN)C(=O)N[C@@H](CN)C(=O)N[C@@H](CN)C(=O)O [Leu-Enkephalin-(Dpr)6-OH, H-Tyr-Gly-Gly-Phe-Leu-(Dpr)6-OH] (H-YGGFL[Dap][Dap][Dap][Dap][Dap][Dap]-OH)",pseudo first-order rate constant for the degradation,leucine aminopeptidase,0.17 min⁻¹
same,half-life,leucine aminopeptidase,4.2 min
same,half-life,carboxypeptidase A,29 min
same,pseudo first-order rate constant for the degradation,carboxypeptidase A,0.024 min⁻¹
same,EC50,vas deferens,200 nM
same,half-life at 99 µM,[1]; plasma,19.8 min
"H-YGGFLKEEEEK-OH [Leu-Enkephalin-(Lys-Glu4-Lys)-OH, H-Tyr-Gly-Gly-Phe-Leu-Lys-Glu-Glu-Glu-Glu-Lys--OH]",pseudo first-order rate constant for the degradation,leucine aminopeptidase,0.065 min⁻¹
same,half-life,leucine aminopeptidase,11 min
same,half-life,carboxypeptidase A,1160 min
same,pseudo first-order rate constant for the degradation,carboxypeptidase A,0.0006 min⁻¹
same,EC50,vas deferens,357 nM
same,half-life at 99 µM,[1]; mouse plasma,84.5 min
"CSCC[C@H](NC(=O)[C@H](CC(C)C)NC(=O)CNC(=O)[C@H](Cc1ccccc1)NC(=O)[C@H](Cc1ccccc1)NC(=O)[C@H](CCC(N)=O)NC(=O)[C@H](CCC(N)=O)NC(=O)[C@@H]1CCCN1C(=O)[C@H](CCCCN)NC(=O)[C@@H]1CCCN1C(=O)[C@@H](N)CCCNC(=N)N)C(N)=O [Substance P-NH2, H-Arg-Pro-Lys-Pro-Gln-Gln-Phe-Phe-Gly-Leu-Met-NH2, reference compound]",pseudo first-order rate constant for the degradation,leucine aminopeptidase,0.045 min⁻¹
same,half-life,leucine aminopeptidase,16 min
same,half-life,carboxypeptidase A,35 min
same,pseudo first-order rate constant for the degradation,carboxypeptidase A,0.02 min⁻¹
same,EC50,guinea pig illeum,40 nM
"YGGFLKKKKKK [Leu-Enkephalin-(Lys)6-OH, H-Tyr-Gly-Gly-Phe-Leu-Lys6-OH]",pseudo first-order rate constant for the degradation,leucine aminopeptidase,0.0097 min⁻¹
same,half-life,leucine aminopeptidase,72 min
same,pseudo first-order rate constant for the degradation,carboxypeptidase A,0.0007 min⁻¹
same,half-life,"carboxypeptidase A; cattle, carboxypeptidase A solution (1 U/ml) in phosphate buffer",990 min
same,Functional activity in serum,"[2]; 50 mg/kg i.v., 5 min",15.9 ± 2.4 µM
same,Functional activity in serum,"[2]; 50 mg/kg i.v., 15 min",8.5 ± 1.2 µM
same,Functional activity in serum,"[2]; 50 mg/kg i.v., 30 min",6 ± 0.95 µM
same,Functional activity in serum,"[2]; 50 mg/kg i.v., 60 min",1.6 ± 0.34 µM
same,Functional activity in serum,"[2]; 50 mg/kg i.v., 180 min",0.44 ± 0.11 µM
same,Functional activity in serum,"[2]; 50 mg/kg i.v., 240 min",2.5 ± 0.32 µM
same,Functional activity in serum,"[2]; 50 mg/kg i.v., 370 min",31.2 ± 8.62 µM
same,Functional activity in serum,"[2]; 50 mg/kg i.v., 720 min",<Detection Limit
same,Functional activity in serum,"[2]; 50 mg/kg i.v., 1080 min",<Detection Limit
same,Functional activity in serum,"[2]; 50 mg/kg i.v., 1440 min",<Detection Limit
same,time at which activity in serum reached a maximum,[2]; 50 mg/kg p.o.,90 to 240 min
same,Functional activity in serum,"[2]; 50 mg/kg p.o., 0 min",0 µM
same,Functional activity in serum,"[2]; 50 mg/kg p.o., 15 min",<Detection Limit
same,Functional activity in serum,"[2]; 50 mg/kg p.o., 30 min",3 ± 0.8 µM
same,Functional activity in serum,"[2]; 50 mg/kg p.o., 60 min",6 ± 1.3 µM
same,Functional activity in serum,"[2]; 50 mg/kg p.o., 90 min",10.9 ± 3.8 µM
same,Functional activity in serum,"[2]; 50 mg/kg p.o., 240 min",10.7 ± 0.23 µM
same,Functional activity in serum,"[2]; 50 mg/kg p.o., 480 min",5 ± 0.58 µM
same,Functional activity in serum,"[2]; 50 mg/kg p.o., 960 min",2.8 ± 0.78 µM
same,Functional activity in serum,"[2]; 50 mg/kg p.o., 1380 min",<Detection Limit
same,EC50,vas deferens,160 nM
same,half-life at 99 µM,[1]; plasma,18.7 min
"H-KKKKKKRPKPQQFFGLM-NH2 [(Lys)6-Substance P-NH2, H-(Lys)6 Arg-Pro-Lys-Pro-Gln-Gln-Phe-Phe-Gly-Leu -Met-NH2]",pseudo first-order rate constant for the degradation,leucine aminopeptidase,0.002 min⁻¹
same,half-life,leucine aminopeptidase,347 min
same,EC50,guinea pig illeum,5 nM
"CC[C@H](C)[C@H](NC(=O)[C@H](CCC(=O)O)NC(=O)[C@H](CO)NC(=O)[C@@H](NC(=O)[C@@H](N)CO)C(C)C)C(=O)N[C@@H](CCC(N)=O)C(=O)N[C@@H](CC(C)C)C(=O)N[C@@H](CCSC)C(=O)N[C@@H](Cc1c[nH]cn1)C(=O)N[C@@H](CC(N)=O)C(=O)N[C@@H](CC(C)C)C(=O)NCC(=O)N[C@@H](CCCCN)C(=O)N[C@@H](Cc1c[nH]cn1)C(=O)N[C@@H](CC(C)C)C(=O)N[C@@H](CC(N)=O)C(=O)N[C@@H](CO)C(=O)N[C@@H](CCSC)C(=O)N[C@@H](CCC(=O)O)C(=O)N[C@@H](CCCNC(=N)N)C(=O)N[C@H](C(=O)N[C@@H](CCC(=O)O)C(=O)N[C@@H](Cc1c[nH]c2ccccc12)C(=O)N[C@@H](CC(C)C)C(=O)N[C@@H](CCCNC(=N)N)C(=O)N[C@@H](CCCCN)C(=O)N[C@@H](CCCCN)C(=O)N[C@@H](CC(C)C)C(=O)N[C@@H](CCC(N)=O)C(=O)N[C@@H](CC(=O)O)C(=O)N[C@H](C(=O)N[C@@H](Cc1c[nH]cn1)C(=O)N[C@@H](CC(N)=O)C(=O)N[C@@H](Cc1ccccc1)C(=O)O)C(C)C)C(C)C [PTH(1-34)(Human)-OH, H-Ser-Val-Ser-Glu-Ile-Gln-Leu-Met-His-Asn-Leu-Gly-Lys -His-Leu-Asn-Ser-Met-Glu-Arg-Val-Glu-Trp-Leu-Arg-Lys-Lys-Leu-Gln-Asp-Val-His -Asn-Phe-OH, reference compound]",pseudo first-order rate constant for the degradation,leucine aminopeptidase,0.0021 min⁻¹
same,half-life,leucine aminopeptidase,330 min
same,half-life,carboxypeptidase A,0.13 min
same,pseudo first-order rate constant for the degradation,carboxypeptidase A,5.2 min⁻¹
same,Retraction assay % Retracted cells,"osteoblast; 10 nM, 1 h, mouse calvaria osteoblasts",58.2%
same,"activity relative to native, human parathyroid hormone",osteoblast; Osteoblast retraction assay,approximately 89%
same,Specificity of the assay,PTH (1-34)-antibody,100%
